PubChem BioAssay AID248 (DTP/NCI, 2004)
“And” between values parts separate entries of the source, which are not always exact repeats. Equal entries are not always repeated. Inconclusive results and toxic doses are left out. Cut-off read from the data, not from the text of the source: active = T/C of 150% or more; inactive = T/C below 125%.

System: L1210 leukemia ip in BDF1 mice, survival T/C
Assay: NCI In Vivo Anticancer Drug Screen. Data for tumor model L1210 Leukemia (intraperitoneal) in B6D2F1 (BDF1) mice
Conditions: endpoint: mean survival time, higher = longer survival
How it was run: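 Ratio derived from survival: compound-dosed mice over vehicle-dosed mice, all bearing a transplantable tumor.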

[1] = dose: 100.0 mg/kg/injection, schedule: Q04DX003 (ip), vehicle: saline with Tween-80
[2] = dose: 200.0 mg/kg/injection, schedule: Q04DX003 (ip), vehicle: saline with Tween-80

Measured: T/C

COc1ccc(C2C3CC4C(OC(=O)C42)C3I)cc1 (configuration not stated)
inactive: dose: 100.0 mg/kg/injection, schedule: Q01DX009 (ip), vehicle: saline with Tween-80 97 % of control | [1] 95 % of control | dose: 200.0 mg/kg/injection, schedule: Q01DX009 (ip), vehicle: saline with Tween-80 98 % of control | [2] 95 % of control | dose: 400.0 mg/kg/injection, schedule: Q01DX009 (ip), vehicle: saline with Tween-80 88 % of control | dose: 400.0 mg/kg/injection, schedule: Q04DX003 (ip), vehicle: saline with Tween-80 87 % of control

C=CCNC(=O)CS(=O)(=O)NCC=C
inactive: dose: 100.0 mg/kg/injection, schedule: Q04DX003 (ip), vehicle: carboxymethylcellulose (CMC) 95 % of control | dose: 200.0 mg/kg/injection, schedule: Q04DX003 (ip), vehicle: carboxymethylcellulose (CMC) 96 % of control | dose: 400.0 mg/kg/injection, schedule: Q04DX003 (ip), vehicle: carboxymethylcellulose (CMC) 117 % of control

CCc1n[nH]c(=S)n1N
inactive: dose: 12.5 mg/kg/injection, schedule: Q04DX003 (ip), vehicle: Klucel (hydroxypropylcellulose) (HPC) 94 % of control | dose: 25.0 mg/kg/injection, schedule: Q04DX003 (ip), vehicle: Klucel (hydroxypropylcellulose) (HPC) 89 % of control | dose: 50.0 mg/kg/injection, schedule: Q04DX003 (ip), vehicle: Klucel (hydroxypropylcellulose) (HPC) 96 % of control

S=c1nc2[nH]c3ccccc3c2n[nH]1
inactive: [1] 94 % of control | [2] 89 % of control

CCCCOP(=O)(OCCCC)Oc1cccc([N+](=O)[O-])c1
inactive: dose: 6.25 mg/kg/injection, schedule: Q01DX009 (ip), vehicle: carboxymethylcellulose (CMC) 117 % of control and 89 % of control | dose: 6.25 mg/kg/injection, schedule: Q04DX002 (ip), vehicle: carboxymethylcellulose (CMC) 93 % of control and 101 % of control | dose: 12.5 mg/kg/injection, schedule: Q01DX009 (ip), vehicle: carboxymethylcellulose (CMC) 110 % of control and 89 % of control | dose: 12.5 mg/kg/injection, schedule: Q04DX002 (ip), vehicle: carboxymethylcellulose (CMC) 93 % of control and 101 % of control | dose: 25.0 mg/kg/injection, schedule: Q01DX001 (ip), vehicle: carboxymethylcellulose (CMC) 104 % of control | dose: 25.0 mg/kg/injection, schedule: Q01DX009 (ip), vehicle: carboxymethylcellulose (CMC) 98 % of control and 92 % of control | dose: 50.0 mg/kg/injection, schedule: Q01DX001 (ip), vehicle: carboxymethylcellulose (CMC) 100 % of control

CCC(=O)OC1(c2ccccc2)CCN(C)C1C (configuration not stated)
inactive: dose: 6.25 mg/kg/injection, schedule: Q01DX009 (ip), vehicle: saline 101 % of control | dose: 12.5 mg/kg/injection, schedule: Q01DX009 (ip), vehicle: saline 97 % of control | dose: 25.0 mg/kg/injection, schedule: Q01DX009 (ip), vehicle: saline 103 % of control | dose: 25.0 mg/kg/injection, schedule: Q04DX003 (ip), vehicle: saline 103 % of control | dose: 50.0 mg/kg/injection, schedule: Q01DX009 (ip), vehicle: saline 111 % of control | dose: 50.0 mg/kg/injection, schedule: Q04DX003 (ip), vehicle: saline 105 % of control | dose: 100.0 mg/kg/injection, schedule: Q01DX009 (ip), vehicle: saline 103 % of control | dose: 100.0 mg/kg/injection, schedule: Q04DX003 (ip), vehicle: saline 100 % of control

CCOC(=O)CCC(NC(=O)c1ccc(NCc2nnc3nc(N)n4nnnc4c3n2)cc1)C(=O)OCC (configuration not stated)
inactive: dose: 25.0 mg/kg/injection, schedule: Q01DX001 (ip), vehicle: saline with Tween-80 96 % of control | dose: 50.0 mg/kg/injection, schedule: Q01DX001 (ip), vehicle: saline with Tween-80 109 % of control | dose: 100.0 mg/kg/injection, schedule: Q01DX001 (ip), vehicle: saline with Tween-80 100 % of control
